“And” between values parts separate entries of the source, which are not always exact repeats. Equal entries are not always repeated. Where two headings read alike, the source gives them in different places.
Tests used:
HEK293 = assay: MTT cell viability assay, HEK293; assay type: cell-based; conditions: Homo sapiens
From the text: (§1) Blokhin National Medical Research Center of Oncology (the Ministry of Health of the Russian Federation, Moscow).

MCF-7 = assay: MTT cell viability assay, MCF-7; assay type: cell-based, human; conditions: Homo sapiens, MCF7
From the text: as §1

HCT116 = assay: MTT cell viability assay, HCT116; assay type: cell-based, human; conditions: Homo sapiens, HCT-116; HCT116, MTT, 72 h of treatment; read-out: IC50 Values (Mean ± SD)
From the text: as §1

RD TE32 = assay: MTT cell viability assay, RD TE32; assay type: cell-based, human; conditions: Homo sapiens
From the text: as §1

MS = assay: MTT cell viability assay, MS; assay type: cell-based, human; conditions: Homo sapiens;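 as to IC50 (mean ± SD): MS is a melanocyte cell line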
From the text: as §1

PC-3 = assay: MTT cell viability assay, PC-3; assay type: cell-based, human; conditions: Homo sapiens; PC-3, MTT, 72 h of treatment; read-out: IC50 Values (Mean ± SD)
From the text: as §1

HEpG2 = assay: MTT cell viability assay, HEpG2; assay type: cell-based, human; conditions: Homo sapiens
From the text: as §1

HBL-100 = assay: MTT cell viability assay, HBL-100; assay type: cell-based, human; conditions: Homo sapiens
Method: (§2) The cells were cultured in a humidified CO2 incubator (model 460-CE; Thermo Fisher Scientific, Waltham, MA, USA) at +37 °C and 5% CO2.
(§3) The percentage of the viable cells was calculated according to the following equation: cell viability (%) = 100 × (mean absorbance in the treatment group/mean absorbance in the control group). The results were expressed pictorially using Prism 6.0 (GraphPad Software, Boston, MA, USA).

HBL-100/Dox = assay: MTT cell viability assay, HBL-100/Dox; assay type: cell-based, human; conditions: Homo sapiens
Method: as §2, §3

HBL-100/Dox cells [1] = assay: Combined action of compounds, MTT assay on HBL-100/Dox cells; assay type: cell-based, human; conditions: 72 h, with 30 μM verapamil
From the text: The results were expressed pictorially using Prism 6.0 (GraphPad Software, Boston, MA, USA).

HBL-100 cells [2] = assay: Cell cycle analysis (DAPI, flow cytometry), HBL-100; assay type: cell-based, human; conditions: for Cell cycle of HBL-100, S-phase: dose = IC50
Method: (§4) The cells were trypsinized and rinsed with the growth medium. Then, the cells were harvested by centrifugation at 500× g for 3 min, and the supernatant was discarded. The cells were washed with PBS (PanEco, Moscow, Russia) twice and centrifuged under similar conditions. The cells were resuspended in 500 μL of PBS, put into centrifuge tubes and fixed by adding 4.5 mL of 70% ethanol dropwise (on ice). The samples were fixed at 4 °C. Overnight, the fixed cells were centrifugally collected (1000× g, 4 °C, 5 min) and washed again with PBS. The cells were finally resuspended in DAPI with 0.1% Triton X-100 in PBS solution (10 μg/mL, Sigma–Aldrich, St. Louis, MO, USA), and stained for 30 min at room temperature in darkness. For each sample, at least 50,000 cells were analyzed using the CytoFlex S flow cytometer (Beckman Coulter, Brea, CA, USA). Cell cycle populations were quantified from DNA histograms with the FlowJo software (ver. X 10.0.7r2, FlowJo Software, San Jose, CA, USA).

HBL-100/Dox cells [3] = assay: Cell cycle analysis (DAPI, flow cytometry), HBL-100/Dox; assay type: cell-based, human; conditions: HBL-100/Dox (resistant) cells, 12-24 h, IC50
Method: as §4

HBL-100 cells [4] = assay: Annexin V-FITC/PI assay, HBL-100; assay type: cell-based, human; conditions: 16 h, dose IC50
Method: (§5) Briefly, after exposing the cells to the tested and control compounds for 16 h, the cells were detached with accutase (HiMedia Laboratories, Maharashtra, India) and washed with cold PBS. Then, the cells were re-suspended in 100 μL of 1 × Binding Buffer at concentration 1 × 10^6 cells/mL and incubated with 5 μL Annexin V-FITC and 5 μL propidium iodide (PI) for 15 min at room temperature in darkness. After incubation, 400 μL of 1 × Binding Buffer was added to each tube. The samples were analyzed by flow cytometry (CytoFlex S, Beckman Coulter, Brea, CA, USA) within 1 h of staining, and the findings were analyzed using a trial version of the Kaluza software (Beckman Coulter, Brea, CA, USA).

HBL-100/Dox cells [5] = assay: Annexin V-FITC/PI assay, HBL-100/Dox; assay type: cell-based, human; conditions: 16 h, dose IC50
Method: as §5

HBL-100 cells [6] = assay: Hoechst 33342 / TMRE fluorescent microscopy, HBL-100; assay type: cell-based, human; conditions: Hoechst 33342, 16 h, IC50 values (MK 1.0 µM)
Method: (§6) The DNA marker, termed Hoechst 33342 Ready Flow Reagent, was used as a stock solution (Invitrogen, ThermoFisher Scientific, USA). The mitochondrial marker, LumiTracker Mito TMRE (tetramethylrhodamine, ethyl ester; Lumiprobe, Moscow, Russia), was dissolved in DMSO as 1.0 mM stock solution. The marker of reactive oxygen species, H2DCFDA (Lumiprobe, Moscow, Russia), was dissolved in DMSO as 100.0 μM stock solution. After incubation, the cells were incubated with FBS-free culture medium containing the dye mixture of Hoechst 33342 (final concentration 1.0 μM) and LumiTracker Mito TMRE (final concentration 1.0 μM), or H2DCFDA dye taken alone (final concentration 1.0 μM), for 30 min at 37 °C in darkness. Fluorescence, at 420 nm (Hoechst 33342), at 510 nm (TMRE), and at 575 nm (H2DCFDA), of the test cultures (including controls) was analyzed immediately using a fluorescence microscope CKX 53 (Olympus, Tokyo, Japan). The TMRE fluorescence intensity was quantified using Fiji (ImageJ).

HBL-100/Dox cells [7] = assay: Hoechst 33342 / TMRE fluorescent microscopy, HBL-100/Dox; assay type: cell-based, human; conditions: Hoechst 33342, 16 h, IC50 values (MK 1.8 µM)
Method: as §6

IC50 (MCF-7; MCF-7, MTT, 72 h of treatment, read-out: IC50 Values (Mean ± SD)): 400 ± 100 nM
IC50 (MCF-7; Table S1, MCF-7, read-out: IC50 (mean ± SD)): 380 ± 90 nM
IC50 (HCT116): 1300 ± 300 nM
IC50 (PC-3): 12600 ± 200 nM
IC50 (HEpG2; HEpG2, MTT, 72 h of treatment, read-out: IC50 Values (Mean ± SD)): 1800 ± 300 nM
IC50 (HEpG2; Table S1, HEpG2, read-out: IC50 (mean ± SD)): 1780 ± 300 nM
Compound: COc1cccc2c1C(=O)c1c(O)c3c(c(O)c1C2=O)C[C@@](O)(C(=O)CO)C[C@@H]3O[C@H]1C[C@H](N)[C@H](O)[C@H](C)O1 [Dox, doxorubicin, reference compound]
IC50 (HEK293; HEK293, MTT, 72 h of treatment, read-out: IC50 Values (Mean ± SD)): 400 ± 100 nM
IC50 (HEK293; Table S1, HEK293, read-out: IC50 (mean ± SD)): 440 ± 40 nM
IC50 (RD TE32; RD TE32, MTT, 72 h of treatment, read-out: IC50 Values (Mean ± SD)): 1300 ± 100 nM
IC50 (RD TE32; Table S1, RD TE32, read-out: IC50 (mean ± SD)): 1270 ± 30 nM
IC50 (MS; MS, MTT, 72 h of treatment, read-out: IC50 Values (Mean ± SD)): 1300 ± 200 nM
IC50 (MS; Table S1, MS, read-out: IC50 (mean ± SD)): 1290 ± 160 nM
IC50 (HBL-100; HBL-100, MTT, 72 h of treatment, read-out: IC50 Values (Mean ± SD)): 400 ± 100 nM
IC50 (HBL-100; Table S1, HBL-100, read-out: IC50 (mean ± SD)): 350 ± 30 nM
IC50 (HBL-100/Dox; HBL-100, 72 h, read-out: IC50 Values (Mean ± SD)): 29600 ± 900 nM
IC50 (HBL-100/Dox; HBL-100, read-out: IC50 (mean ± SD)): 29600 ± 940 nM
diminution of IC50 value of Dox in combination with verapamil (HBL-100/Dox cells [1]): 37 fold
Cell cycle of HBL-100, S-phase (HBL-100 cells [2]; 12 h): 48.19±0.09%
Cell cycle of HBL-100, S-phase (HBL-100 cells [2]; 13 h): 46.86±0.22%
Cell cycle of HBL-100, S-phase (HBL-100 cells [2]; 14 h): 48.25±0.51%
Cell cycle of HBL-100, S-phase (HBL-100 cells [2]; 15 h): 57.27±0.14%
Cell cycle of HBL-100, S-phase (HBL-100 cells [2]; 16 h): 61.28±2.01%
Cell cycle of HBL-100, S-phase (HBL-100 cells [2]; 17 h): 56.17±1.64%
Cell cycle of HBL-100, S-phase (HBL-100 cells [2]; 18 h): 55.42±0.92%
Cell cycle of HBL-100, S-phase (HBL-100 cells [2]; 24 h): 76.69±0.75%
effect on cell cycle progression (HBL-100 cells [2]; HBL-100 (parental) cells, 12-24 h, IC50): induced the S phase arrest
effect on cell cycle progression (HBL-100/Dox cells [3]): induced the S phase arrest
Dead cells (HBL-100 cells [4]): 1.80±0.31%
Early apoptotic cells (HBL-100 cells [4]): 12.35 ± 0.42%
Late apoptotic cells (HBL-100 cells [4]): 1.93±0.29%
Viable cells (HBL-100 cells [4]): 83.89±0.82%
Dead cells (HBL-100/Dox cells [5]): 0.84±0.24%
Early apoptotic cells (HBL-100/Dox cells [5]): 2.56 ± 0.36% and 2.56±0.37%
Late apoptotic cells (HBL-100/Dox cells [5]): 0.82±0.55%
Viable cells (HBL-100/Dox cells [5]): 95.74±1.10%
number of cells with nuclear morphology changes (HBL-100 cells [6]): 25.2%
number of cells with nuclear morphology changes (HBL-100/Dox cells [7]): 9.9%

From article PMC10298530, “Synthesis and Anticancer Activity of A-Ring-Modified Derivatives of Dihydrobetulin” (International Journal of Molecular Sciences, 2023)
